How the values of the data set were obtained:
Preparation of curcumin in coconut oil. To a round bottom flask with a magnetic stir bar, 20 mg of curcumin and 25 mL (23000 mg) of coconut oil were added. The flask was placed in a water bath at 40° C. and the mixture was stirred for 30 min. The sample was then cooled to room temperature and centrifuged to remove non-dissolved residue of curcumin.
(§1) The sample was then cooled to room temperature and used for the next studies.
as §1

Each structure is given as a SMILES string.

With `COc1cc(/C=C/C(=O)CC(=O)/C=C/c2ccc(O)c(OC)c2)ccc1O` [curcumin], the “solubility (concentration) in coconut oil” value was “around 0.08 wt %”.
